Assay results taken from US6627646B2 (Sepracor Inc., priority 2001, dated 2003).

assay: not given; conditions: factor between polymorphs; cited from earlier work

Row | Compound | difference in bio-activity between form A and form B
1 | CCCCCCCCCCCCCCCC(=O)OC[C@@H](NC(=O)C(Cl)Cl)[C@H](O)c1ccc([N+](=O)[O-])cc1 [Chloramphenicol-3-palmitate] | eight

assay: XRPD (Rietveld) polymorph determination of samples made by literature processes; assay type: physicochemical; conditions: samples generated following referenced literature procedures; validated XRPD method
Source text: A Rietveld analysis was developed that allowed quantitative determination of Form B in Form A down to a detection limit at 5%. Upon analysis, it became apparent that the desired polymorph, in any reasonable degree of purity, could not be produced by the known procedures, and indeed, even a specific ratio of polymorphs was not consistently produced by the known procedures. As discussed above, such a situation is highly undesirable from both a medical and a regulatory standpoint.
All prior processes for producing norastemizole free base, described in art known to the applicants, were examined. The samples were generated following the referenced procedures and were tested using the validated XRPD method.

Row | Polymorph Results, % Form B [%] | Compound
2 | 86 | Fc1ccc(Cn2c(NC3CCNCC3)nc3ccccc32)cc1 [R1632-7A]
3 | 91 | Fc1ccc(Cn2c(NC3CCNCC3)nc3ccccc32)cc1 [H1632-4A]
4 | 100 | Fc1ccc(Cn2c(NC3CCNCC3)nc3ccccc32)cc1 [H1632-6A]
5 | 100 | Fc1ccc(Cn2c(NC3CCNCC3)nc3ccccc32)cc1 [H1632-30A]
6 | 90 | Fc1ccc(Cn2c(NC3CCNCC3)nc3ccccc32)cc1 [H1632-5A]
